pIC50: −log10 of the molar value. Structures can show the parent of a compound that is named as a salt.
Key:
cyclooxygenase = target: T1, cyclooxygenase (Rattus norvegicus, UniProt Q63921); assay: Cyclooxygenase inhibitory activity (HHT formation from arachidonic acid in rat platelet-rich plasma); format: cell-based, rat (Jcl:wistar)
T1 construct: from tissue; host or cells: platelets in platelet-rich plasma from rat abdominal aorta blood (Jcl:wistar, male)
T1 sequence (Q63921 27-602): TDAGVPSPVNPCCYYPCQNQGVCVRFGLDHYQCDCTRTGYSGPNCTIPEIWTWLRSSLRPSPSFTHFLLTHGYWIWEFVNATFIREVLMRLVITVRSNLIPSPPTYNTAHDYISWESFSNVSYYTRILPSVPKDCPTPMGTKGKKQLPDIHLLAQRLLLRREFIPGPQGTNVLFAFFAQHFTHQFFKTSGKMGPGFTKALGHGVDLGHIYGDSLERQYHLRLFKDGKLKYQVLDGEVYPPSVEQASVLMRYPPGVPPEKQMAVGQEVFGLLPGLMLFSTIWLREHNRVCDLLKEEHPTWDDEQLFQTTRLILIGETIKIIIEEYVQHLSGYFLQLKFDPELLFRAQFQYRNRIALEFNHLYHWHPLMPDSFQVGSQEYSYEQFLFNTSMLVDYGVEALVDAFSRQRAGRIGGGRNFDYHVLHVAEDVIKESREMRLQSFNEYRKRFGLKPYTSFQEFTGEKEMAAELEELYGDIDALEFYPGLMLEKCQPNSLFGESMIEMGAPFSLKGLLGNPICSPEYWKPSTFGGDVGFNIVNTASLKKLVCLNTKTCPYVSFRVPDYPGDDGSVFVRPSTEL

[1] = tested on: ART (antigen-responding T-cell); assay: In vitro ART (antigen-responding T-cell) proliferation test; format: cell-based, Lewis rat; conditions: for inhibition at 1 µM / inhibition at 10 µM: Rattus norvegicus, T-cell, read-out: % Inhibition of ART growth
[2] = tested on: Mouse phenylquinone writhing; assay: Mouse phenylquinone writhing inhibitory activity; format: in vivo, mouse (Slc: ICR); conditions: 50 mg/kg, orally; for inhibition in vivo at 50 mg/kg: Mus musculus, po, 20 min, read-out: Inhibitory percentage (phenylquinone writhing)
Procedure: Mouse Phenylquinone Writhing Inhibitory Activity A Slc: ICR male mouse (4 weeks, weight 17 to 24 g) was used. A test compound suspended in 5% gum arabic solution was administered orally. After 30 minutes, 0.1 ml/10 g body weight of 0.02% phenylquinone solution in water (dissolved by the aid of 5% ethanol) was injected intraperitoneally, and writhing and stretching responses of individual animals were measured for 20 minutes [Siegmund, E., Cadmus, R. and Lu, G.; Proc. Soc. exp. Biol. Med. 95, (1957)].

[3] = tested on: brewer's yeast induced pyrexia; assay: Antipyretic activity (brewer's yeast induced pyrexia); format: in vivo, rat (DS line); conditions: 50 mg/kg, orally; for Antipyretic activity, .increment. °C.: at peak time
Procedure: Antipyretic Activity Six male DS line rats, 7 weeks old, weighing 200 to 240 g (Nihon Clea) per one group were used. According to the method of Winder et al. (J. Pharmac. Exp. Ther. 138: 405 (1963)), a suspension of 15% brewer's yeast (Sigma) in physiological saline (1 ml/100 g, b.w.) was injected subcutaneously at 16 hours before measurement of the body temperature to induce pyrexia. After injection of yeast, only water was provided, and each rat was bred separately in a five duplicate cage. At 16, 17 and 18 hours after yeast injection, the rectal temperature was measured by a thermistor thermometer (Takara Kogyo K.K.), and this was taken as the basal body temperature. […] Animals having the body temperature of not lower than 38.5° C. at 18 hours after yeast injection were selected, and a test compound was administered orally (1 ml/100 g, b.w.). As a control, only the solvent was provided. Upon administration, the body temperature of the control group and that of the test compound-administered group were adjusted to the same temperature. The rectal temperature was measured every hour till five hours after administration.

[4] = tested on: Rat carrageenin pedal edema; assay: Rat carrageenin pedal edema inhibitory activity; format: in vivo, rat (Jcl: SD); conditions: 50 mg/kg, orally, 3 hours after carrageenin; for inhibition in vivo at 50 mg/kg: Rattus norvegicus, po, 3 h, read-out: Inhibitory percentage (carrageenin pedal edema)
Procedure: Rat Carrageenin Pedal Edema Inhibitory Activity A Jcl: SD male rat (6 weeks old, weight 160-220 g) was used. After the mesurement of the volume of the dexter hind limb foot pad, a test compound suspended in 5% gum arabic solution was administered orally. Immediately after the administration, water was further administered orally so that the total administration volume of liquid became 5 ml/rat. After one hour, 0.05 ml of 1% carrageenin suspension in physiological saline was injected subcutaneously in the foot pad to induce edema [Winter, […]. and Nuss, G. W.: Proc. Soc. exp. […] Three hours after injection of carrageenin, the volume of the dexter limb was measured, and the edema volume was calculated by the difference between the volume after injection and the volume prior to injection.

| Molecule | pIC50 (cyclooxygenase) | inhibition in vivo at 50 mg/kg [2] [%] | inhibition in vivo at 50 mg/kg [4] [%] | further results |
| --- | --- | --- | --- | --- |
| CC(=O)N(CCCSc1ccncc1)Cc1ccccc1.Cl [Example 76, 4-[3-(N-benzyl-N-acetylamino)propylthio]pyridine hydrochloride] | 4.89 | – | – | % Inhibition of ART growth ([1]; 1 μM): 3%; % Inhibition of ART growth ([1]; 10 μM): 38%; Inhibitory percentage (phenylquinone writhing) [2]: 61% |
| O=C1c2ccccc2C(=O)N1CSc1ccccn1 [Example 64, 2-(phthalimidomethylthio)pyridine] | – | 56 | – | Antipyretic activity, peak time [3]: 3 h; Antipyretic activity, .increment. °C. [3]: -2.58 °C |
| O=C(c1ccccc1)N(CCOc1ccncc1)Cc1ccccc1 [Example 118, 4-[2-(N-benzyl-N-benzoyl)aminoethyloxy]pyridine hydrochloride] | – | – | 31 | % Inhibition of ART growth ([1]; 1 μM, hydrochloride): 8%; % Inhibition of ART growth ([1]; 10 μM, hydrochloride): 38% |
| O=C1SC(=Cc2ccccc2)C(=O)N1CSc1ccncc1 [Example 159, 4-(5-benzylidene-2,4-thiazolidinedione)methylthiopyridine] | – | – | 25 | – |
| O=C(NCCCCSc1ccncc1)c1ccccc1 [Example 127, 4-[4-(benzoylamino)butylthio]pyridine] | – | – | 32 | – |
| O=C1CSC(=S)N1CCCCSc1ccncc1 [Example 163, 4-(4-rhodaninebutylthio)pyridine] | – | – | 29 | inhibition at 10 µM ([1]; 10 μM): 99% |
| O=C1CCC(=O)N1CCCCSc1ccncc1 [Example 143, 4-(4-succinimidobutylthio)pyridine] | – | – | 27 | – |
| O=C(/C=C/c1ccccc1)NCCCSc1ccncc1 [Example 28, 4-[3-(cinnamoylamino)propylthio]pyridine hydrochloride] | 5.25 | – | 25 | – |
| CC(C)(C)C(=O)Nc1ncccc1CCN1C(=O)c2ccccc2C1=O.Cl [Example 71, 3-[2-(phthalimido)ethyl]-2-(pivaloylamino)pyridine hydrochloride] | – | 55 | – | Antipyretic activity, peak time [3]: 2 h; Antipyretic activity, .increment. °C. [3]: -0.52 °C |
| O=C(NCSc1ccncc1)c1cccnc1 [Example 138, 4-(3-picolinoylaminomethylthio)pyridine] | – | – | 25 | – |
| O=C(N(CCCSc1ccncc1)Cc1ccccn1)C(F)(F)F [Example 78, 4-[3-(N-2-pyridylmethyl-N-trifluoroacetylamino)propylthio] pyridine dihydrochloride] | 5.28 | 55 | – | – |
| O=C(NCCCSc1ccncc1)c1ccc(Cl)cc1 [Example 29, 4-[3-(4-chlorobenzoylamino)propylthio]pyridine hydrochloride] | – | – | 25 | – |
| O=C(NCCCOc1ccncc1)c1cccs1 [Example 89, 4-[3-(2-thenoylamino)propyloxy]pyridine] | – | 62 | – | Antipyretic activity, peak time [3]: 3 h; Antipyretic activity, .increment. °C. [3]: -2.72 °C |
| Cc1ccc(C(=O)NCCCSc2ccncc2)cc1 [Example 31, 4-[3-(4-methylbenzoylamino)propylthio]pyridine] | 5.34 | – | 32 | – |
| 4-(4-isobutyrylpiperidylthio)pyridine [Example 136] | – | – | – | Inhibitory percentage (carrageenin pedal edema) [4]: 33% |
| COc1cc(OC)cc(C(=O)NCCCSc2ccncc2)c1 [Example 33, 4-[3-(3,5-dimethoxybenzoylamino)propylthio]pyridine] | 5.55 | – | 37 | inhibition at 1 µM ([1]; 1 μM): 33%; inhibition at 10 µM ([1]; 10 μM): 46% |
| CC(C)(CSc1ccncc1)CN1C(=O)c2ccccc2C1=O [Example 145, 4-(2,2-dimethyl-3-phthalimidopropylthio)pyridine] | – | – | 22 | inhibition at 1 µM ([1]; 1 μM): 17%; inhibition at 10 µM ([1]; 10 μM): -42% |
| O=C1c2ccccc2C(O)N1CSc1ccncc1 (stereo not drawn) [Example 97, 4-(3-hydroxyisoindolin-1-on-2-ylmethylthio)pyridine] | – | – | 29 | inhibition at 1 µM ([1]; 1 μM): 30%; inhibition at 10 µM ([1]; 10 μM): 31% |
| O=C(c1cccs1)N1CCC(Sc2ccncc2)CC1 [Example 132] | – | – | 45 | – |
| O=C(NCCCSc1ccncc1)c1ccccc1 [Example 40, 4-[3-(benzoylamino)propylthio]pyridine] | 5.12 | 45 | – | Antipyretic activity, peak time [3]: 3 h; Antipyretic activity, .increment. °C. [3]: -2.00 °C |

The next lines start with results.

| pIC50 (cyclooxygenase) | Molecule | inhibition in vivo at 50 mg/kg [2] [%] | inhibition in vivo at 50 mg/kg [4] [%] | further results |
| --- | --- | --- | --- | --- |
| 5.15 | O=C1c2ccccc2CN1CCCSc1ccncc1 [Example 111, 4-[3-(isoindolin-1-on-2-yl)propylthio]pyridine] | 64 | – | inhibition at 1 µM ([1]; 1 μM): 30%; inhibition at 10 µM ([1]; 10 μM): -12%; Antipyretic activity, peak time [3]: 2 h; Antipyretic activity, .increment. °C. [3]: -0.68 °C |
| 5.85 | O=C(NCCCOc1ccncc1)c1cc2ccccc2s1 [Example 85, 4-[3-(thianaphtene-2-carbonylamino)propyloxy]pyridine] | 70 | – | Antipyretic activity, peak time [3]: 2 h; Antipyretic activity, .increment. °C. [3]: -1.00 °C |
| 5.54 | O=C1c2ccccc2CN1CCCCOc1ccncc1 [Example 156, 4-[4-(isoindolin-1-on-2-yl)butyloxy]pyridine] | – | 32 | – |
| 5.20 | Cl.O=C(c1ccccc1)N(CCCSc1ccncc1)Cc1cccs1 [Example 93, 4-[3-(N-(2-thienylmethyl)benzoylamino)propylthio]pyridine hydrochloride] | – | – | inhibition at 1 µM ([1]; 1 μM): 42%; inhibition at 10 µM ([1]; 10 μM): 11%; Inhibitory percentage (phenylquinone writhing) [2]: 41% |
| 5.35 | O=C1c2ccccc2C(=O)N1CCCCOc1ccncc1 [Example 84, 4-(4-phthalimidobutyloxy)pyridine] | 84 | – | Antipyretic activity, peak time [3]: 3 h; Antipyretic activity, .increment. °C. [3]: -0.97 °C |
| 5.60 | O=C(NCCCCSc1ccncc1)c1cccs1 [Example 129, 4-[4-(2-thenonylamino)butylthio]pyridine] | – | 34 | – |
| 5.11 | O=C1c2ccccc2C(O)N1CCSc1ccncc1 (stereo not drawn) [Example 104, 4-[2-(3-hydroxyisoindolin-1-on-2-yl)ethylthio]pyridine] | – | 21 | – |
| 5.00 | O=C1c2ccccc2C(=O)N1CCCOc1ccncc1 [Example 83, 4-(3-phthalimidopropyloxy)pyridine] | 59 | – | Antipyretic activity, peak time [3]: 2 h; Antipyretic activity, .increment. °C. [3]: -0.82 °C |
| 4.96 | O=C1c2ccccc2C(O)N1CCCSc1ccncc1 (stereo not drawn) [Example 110, 4-[3-(3-hydroxyisoindolin-1-on-2-yl)propylthio]pyridine] | – | 44 | inhibition at 1 µM ([1]; 1 μM): -21%; inhibition at 10 µM ([1]; 10 μM): 1% |
| 5.17 | O=C(c1ccccc1)N(CCCSc1ccncc1)Cc1ccccn1 [Example 81, 4-[3-(N-2-pyridylmethyl-N-benzoylamino)propylthio]pyridine] | – | – | Inhibitory percentage (phenylquinone writhing) [2]: 75% |
| 5.92 | CCCCCCCCCC(=O)NCCCOc1ccncc1 [Example 88] | 41 | – | – |

From patent US5457106A, “Pyridine derivatives, their production and use” (Takeda Chemical Industries, Ltd., priority 1991, dated 1995)
